What was measured:
[1] = tested on: PAF-induced platelet aggregation, rabbit platelet-rich plasma; assay: Inhibitory action on PAF-induced platelet aggregation; type: cell-based, rabbit (New Zealand white); conditions: Oryctolagus cuniculus, rabbit PRP, PAF 5×10^-9 M, 37° C.
Experimental: Inhibitory action on PAF-induced platelet aggregation Blood was collected from the […] of conscious New Zealand white male rabbits weighing 2 to 3 kg using citric acid as an anticoagulant (one volume pan of 3% citric acid relative to 9 volume parts of the whole blood). […] PRP was diluted with PPP to adjust the number of platelets to about 3×10^5 /μl. […] Platelet aggregation was then examined by means of turbidimetry [Born, Nature, 194, 927(1962)] with dual channel aggegometer (Chrono-Log. Corp., Havertown, Pa.). As the control, physiological saline without test sample was used. The platelet aggregation inhibiting activities of the test sample are expressed as IC50, that is the concentration of the compound at which 50% of the aggregation is inhibited.

[2] = tested on: PAF-induced [^14 C]-serotonin release, rabbit platelets; assay: Inhibitory action on PAF-induced [^14 C]-serotonin release; type: cell-based, rabbit (New Zealand white); conditions: Oryctolagus cuniculus, Platelet, PAF 1×10^-9 M; for inhibition at 0.05 µM: test compound 5 × 10^-8 M; for inhibition at 0.2 µM: test compound 2 × 10^-7 M; for inhibition at 0.005 µM: test compound 5 × 10^-9 M
Experimental: Inhibitory action on PAF-induced [^14 C]-serotonin release
Blood was collected from the hearts of conscious New Zealand white male rabbits weighing 2 to 3 kg. The blood was immediately subjected to a centrifuge at 1400 rpm for 10 minutes to obtain platelet rich plasma(PRP).PRP was incubated with a trace mount of [^14 C]-serotonin for 20 minutes at 22° C. Prelabelled platelets were prepared by centrifugation at 3500 rpm for 10 minutes. The test compound was added to 80 μl of [^14 C] serotonin-labeled platelets in plastic test tubes, and the mixture was incubated for 2 minutes. PAF (1×10^-9 M) was then added to the reaction mixture and incubated for additional 2 minutes at which time 10 μl of cold formaldehyde was added to stop the reactions. The tubes were immediately cooled to 4° C. and centrifuged at 12000 rpm for 2 minutes. The supernatants (80 μl) were assayed for percentage of [^14 C] serotonin release by the conventional methods of measuring ^14 C counts.

[3] = target: T1, PAF receptor (rabbit platelet membranes) (Oryctolagus cuniculus, UniProt G1TEI7); assay: PAF Receptor Binding Assay; conditions: 0.6 nM [^3 H]C18 -PAF, 60 minutes, room temperature, calculated as IC50/2
T1 construct: Rabbit platelets were prepared by centrifugation and washing; tissue Pel-Freez (Rogers, AR); host or cells: rabbit platelets (washed, from citrated whole blood; lysed membranes)
Experimental: PAF Receptor Binding Assay Citrated whole rabbit blood was obtained from Pel-Freez(Rogers, AR). Rabbit platelets were prepared by centrifugation and washing. The platelets were lysed by freeze-thawing and sonification; Platelet membranes were prepared by centrifugation and washing. Final membrane preparation were stored frozen in 10 mM Tris/5 mM MgCl2 /2 mM EDTA (TME buffer, pH 7.0) with 0.25M sucrose added for membrane stabilization. […] The final volume of the assay was 100 μl. […] The […] and removed. The bound radioactivity was quantitated with a Berthold TLC-Linear Analyzer model LB2842. […] Experiments were repeated at least once. […] Ki values of inhibitory binding constants were calculated according to the methods of the literature[Cheng et al., Biochem.

T1 sequence (G1TEI7 1-342): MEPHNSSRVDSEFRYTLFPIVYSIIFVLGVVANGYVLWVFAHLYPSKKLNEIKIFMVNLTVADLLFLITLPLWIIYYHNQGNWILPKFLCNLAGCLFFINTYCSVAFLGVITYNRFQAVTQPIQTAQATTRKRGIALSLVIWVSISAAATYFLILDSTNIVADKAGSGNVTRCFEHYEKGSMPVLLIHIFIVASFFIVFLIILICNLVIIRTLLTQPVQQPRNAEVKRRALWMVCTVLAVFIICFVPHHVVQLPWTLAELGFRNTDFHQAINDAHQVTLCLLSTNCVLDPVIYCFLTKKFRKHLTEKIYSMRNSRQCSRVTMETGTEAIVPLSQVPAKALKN

Row | Structure (SMILES) | IC50 [1] | inhibition at 0.05 µM [2] | Ki [3] | inhibition at 0.2 µM [2] | inhibition at 0.005 µM [2]
1 | CCCCCCCCCCCCCCCCOC[C@H]1C[C@@H](COC(=O)N(Cc2cccc[n+]2CC)C(C)=O)O1 (relative stereo) [Example 1, cis-2-[[N-Acetyl-N-[[[2-[(hexadecyloxy)methyl]-4-oxetanyl]methoxy]carbonyl]amino]methyl]-1-ethyl-pyridinium iodide] | 95 nM | 51% | 21.2 nM | – | –
2 | CCCCCCCCCCCCCCCCOC[C@H]1C[C@H](COC(=O)N(Cc2cccc[n+]2CC)C(C)=O)O1 (relative stereo) [Example 2, trans-2-[[N-Acetyl-N-[[[4-[(hexadecyloxy)methyl]-2-oxetanyl]methoxy]carbonyl]amino]methyl]-1-ethyl-pyridinium iodide] | 57 nM | 93% | 14.7 nM | 98% | 44%
3 | CCCCCCCCCCCCCCCCCCNC(=O)OC[C@@H]1C[C@H](COC(=O)N(Cc2cccc[n+]2CC)C(C)=O)O1 (relative stereo) [Example 3, cis-2-[[N-Acetyl-N-[[[4-[[(octadecylcarbamoyl)oxy]methyl]-2-oxetanyl]methoxy]carbonyl]amino]methyl]-1-ethyl-pyridinium iodide] | – | – | – | 97% | 58%
4 | CCCCCCCCCCCCCCCCCCNC(=O)OCC1(COC(=O)N(Cc2cccc[n+]2CC)C(C)=O)COC1 [Example 6, 2-[[N-Acetyl-N-[[[3-[[(octadecylcarbamoyl)oxy]methyl]-3-oxetanyl]methoxy]carbonyl]amino]methyl]-1-ethyl-pyridinium iodide] | – | 96% | – | 98% | –
5 | CCCCCCCCCCCCCCCCCCNC(=O)OCC1(COC(=O)N(Cc2cccc[n+]2CC)C(C)=O)CCC1 [Example 14, 2-[[N-Acetyl-N-[[[1-[[(octadecylcarbamoyl)oxy]methyl]-1-cyclobutyl]methoxy]carbonyl]amino]methyl]-1-ethyl-pyridinium iodide] | 118 nM | 98% | 6.6 nM | 99% | 18%
6 | CCCCCCCCCCCCCCCCCCNC(=O)OCC1(COC(=O)CCCCC[n+]2ccsc2)COC1 [Example 13, 3-[5-[[[3-[[(Octadecylcarbamoyl)oxy]methyl]-3-oxetanyl]methoxy]carbonyl]pentyl]thiazolium bromide] | 382 nM | – | 30.5 nM | 92% | –

Source: US5610310A, “Cyclic lipid derivatives as potent PAF antagonists” (Pohang Iron & Steel Co., Ltd, priority 1995, dated 1997)
